Data published in article PMC9696794, “Synthesis and Antimicrobial Activity of Short Analogues of the Marine Antimicrobial Peptide Turgencin A: Effects of SAR Optimizations, Cys-Cys Cyclization and Lipopeptide Modifications” (International Journal of Molecular Sciences, 2022).
Converted amounts (≈) assume the structure as drawn. Where a SMILES comes first, the peptide text is derived from it. Bridges are numbered along the chain shown (N, C = ends). The star is where a group is joined. Lauroyl = CCCCCCCCCCCC(=O)*; Decanoyl = CCCCCCCCCC(=O)*

Legend:
[1] = system: B. subtilis (Bs, ATCC 23857); test: microbe, parasite or virus in culture; assay type: cell-based, Bacillus subtilis; details: ATCC 23857, 24 h
Procedure, shortened: (§1)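 Cultures grown in Mueller–Hinton broth were adjusted by OD600 to 2.5–3 × 10^4 CFU/mL and mixed with two-fold peptide dilutions from 256 to 1 µg/mL. Plates were incubated at 35 °C with OD595 monitored every hour for 24 h.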

[2] = system: C. glutamicum (Cg, ATCC 13032); test: microbe, parasite or virus in culture; assay type: cell-based, Corynebacterium glutamicum; details: ATCC 13032, 24 h
Procedure, shortened: as §1

[3] = system: S. aureus (Sa, ATCC 9144); test: microbe, parasite or virus in culture; assay type: cell-based, Staphylococcus aureus; details: ATCC 9144, 24 h
Procedure, shortened: as §1

[4] = system: S. epidermidis RP62A (Se, ATCC 35984); test: microbe, parasite or virus in culture; assay type: cell-based, Staphylococcus epidermidis; details: ATCC 35984, 24 h
Procedure, shortened: as §1

[5] = system: E. coli (Ec, ATCC 25922); test: microbe, parasite or virus in culture; assay type: cell-based, Escherichia coli; details: ATCC 25922, 24 h
Procedure, shortened: as §1

[6] = system: P. aeruginosa (Pa, ATCC 27853); test: microbe, parasite or virus in culture; assay type: cell-based, Pseudomonas aeruginosa; details: ATCC 27853, 24 h
Procedure, shortened: as §1

[7] = system: all bacterial strains; test: Antibacterial MIC assay, all bacterial strains together (range or geometric mean); assay type: cell-based; details: for GM (geometric mean of the MIC values against all bacterial strains): Table 1, six bacterial strains; for GM of MIC Tot. bact.: Table S3, all bacterial test strains, MIC >256 set to 256
Procedure, shortened: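 Broth microdilution in Mueller–Hinton broth against B. subtilis, C. glutamicum, S. aureus, S. epidermidis RP62A, E. coli and P. aeruginosa; inoculum 2.5–3 × 10^4 CFU/mL, 35 °C, OD595 read hourly for 24 h. MIC: lowest peptide concentration giving OD below 10% of growth control; geometric mean across strains, triplicate.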

[8] = system: A. pullulans (Ap); test: microbe, parasite or virus in culture; assay type: cell-based, Aurobasidium pollulans; details: 48 h
Procedure, shortened: (§2)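 Overnight cultures in potato dextrose broth with 2% glucose at 25–30 °C were diluted to approx. 4 × 10^5 spores/mL and mixed 1:1 with two-fold peptide dilutions plated at 256 to 1 µg/mL. After 48 h at room temperature, OD600 was read. MIC was the lowest concentration giving OD below 10% of the growth control, in triplicate.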

[9] = system: C. albicans (Ca, ATCC 10231); test: microbe, parasite or virus in culture; assay type: cell-based, Candida albicans; details: ATCC 10231, 48 h
Procedure, shortened: as §2

[10] = system: Rhodotorula sp. (Rh); test: microbe, parasite or virus in culture; assay type: cell-based; details: 48 h
Procedure, shortened: as §2

[11] = system: human red blood cells (RBC); test: Haemolytic activity assay; assay type: cell-based; details: for Selectivity index (SI) G-: EC50/GM of Gram-negative strains; for Selectivity index (SI) G+: EC50/GM of Gram-positive strains; for SI (selectivity index = EC50/GM): haemolytic EC50 over GM of MIC against all bacterial strains, Table 1; for RBC Tox. (EC50), haemolytic activity: human RBC, 1 h, 37 °C, concentration giving 50% haemolysis; for Selectivity index (SI) Fungi: EC50/GM of fungi
Procedure, shortened: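 Washed human erythrocytes (1% hematocrit final) incubated 1 h at 37 °C with agitation with lipopeptides at 500–3.9 μM in PBS (≤1% DMSO), duplicates. Haemoglobin release read at 545 nm relative to 0.1% Triton X-100; EC50 is 50% haemolysis, averaged from three experiments.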

[12] = system: E. coli MC4100 (wild type, WT); test: microbe, parasite or virus in culture; details: wild type
Procedure, shortened: (§3)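 Broth microdilution in Mueller–Hinton medium, 2.5–3 × 10^4 CFU/mL inoculum, two-fold peptide dilutions from 256 to 1 µg/mL, 35 °C with OD595 read hourly for 24 h. MIC is the lowest concentration giving OD below 10% of the untreated growth control; run in triplicate.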

[13] = system: E. coli NR698 (outer membrane permeable mutant, imp4213); test: microbe, parasite or virus in culture; details: MC4100 NR698 imp4213, deficient outer membrane
Procedure, shortened: as §3

[14] = system: Gram-positive bacterial strains; details: Table S3; MIC >256 set to 256
Procedure, shortened: as §1

[15] = system: Gram-negative bacterial strains (E. coli and P. aeruginosa); test: Antibacterial MIC assay, Gram-negative strains together (range or geometric mean); assay type: cell-based; details: Table S3; MIC >256 set to 256
Procedure, shortened: as §1

[16] = system: fungi (A. pullulans, C. albicans, Rhodotorula sp.); test: Antifungal MIC assay, all fungi together (range or geometric mean); assay type: cell-based; details: Table S3; MIC >128 set to 128
Procedure, shortened: as §2

[17] = Table S3, highest tested concentration used where EC50 above it

Row | SMILES | Antimicrobial Activity (MIC) Gram + Bs [1] | Antimicrobial Activity (MIC) Gram + Cg [2] | Antimicrobial Activity (MIC) Gram + Sa [3] | Antimicrobial Activity (MIC) Gram + Se [4] | Antimicrobial Activity (MIC) Gram − Ec [5] | Antimicrobial Activity (MIC) Gram − Pa [6] | GM (geometric mean of the MIC values against all bacterial strains) [7] | GM of MIC Tot. bact. [7] | Antimicrobial Activity (MIC) Fungi Ap [8] | Antimicrobial Activity (MIC) Fungi Ca [9] | Antimicrobial Activity (MIC) Fungi Rh [10] | Selectivity index (SI) G- [11, 17] | Selectivity index (SI) G+ [11, 17] | SI (selectivity index = EC50/GM) [11] | RBC Tox. (EC50), haemolytic activity [11] | MIC E. coli MC4100 (WT) [12] | MIC E. coli NR698 (mutant) [13] | GM of MIC G+ [14] | GM of MIC G- [15] | GM of MIC Fungi [16] | further results
1 | CCCCCCCCCC(=O)N[C@H]1CSSC[C@@H](C(=O)N[C@@H](CCCNC(=N)N)C(=O)N[C@@H](CC(C)C)C(N)=O)NC(=O)[C@H](CCCNC(=N)N)NC(=O)[C@H](Cc2c[nH]c3ccccc23)NC(=O)[C@H](Cc2c[nH]c3ccccc23)NC(=O)CNC(=O)[C@H](Cc2c[nH]c3ccccc23)NC(=O)[C@H](CCCNC(=N)N)NC(=O)[C@H](CCCNC(=N)N)NC(=O)CNC1=O [Peptide C10-cTurg-6, C10- (CGRRWGWWRC)RL-NH2] (Decanoyl-CGRRWGWWRCRL-NH2; disulfide 1-10) | 4 µg/mL | 4 µg/mL | 8 µg/mL | 8 µg/mL | 16 µg/mL | 16 µg/mL | 8 µg/mL | 8 µg/mL | 64 µg/mL | 64 µg/mL | 32 µg/mL | 1 | 3 | 2 | 16 µg/mL | 8 µg/mL (≈ 4.48 µM) | 8 µg/mL (≈ 4.48 µM) | 6 µg/mL | 16 µg/mL | 51 µg/mL | –
2 | CCCCCCCCCCCC(=O)N[C@H]1CSSC[C@@H](C(=O)N[C@@H](CCCCN)C(=O)N[C@@H](CC(C)C)C(N)=O)NC(=O)[C@H](CCCCN)NC(=O)[C@H](Cc2c[nH]c3ccccc23)NC(=O)CNC(=O)[C@H](Cc2c[nH]c3ccccc23)NC(=O)[C@H](Cc2c[nH]c3ccccc23)NC(=O)[C@H](CCCCN)NC(=O)[C@H](CCCCN)NC(=O)CNC1=O [Peptide C12-cTurg-2, C12- (CGKKWWGWKC)KL-NH2] (Lauroyl-CGKKWWGWKCKL-NH2; disulfide 1-10) | 4 µg/mL | 8 µg/mL | 8 µg/mL | 8 µg/mL | 16 µg/mL | 16 µg/mL | 9 µg/mL | 9 µg/mL | 32 µg/mL | 64 µg/mL | 32 µg/mL | 2 | 5 | 4 | 32 µg/mL | 8 µg/mL (≈ 4.7 µM) | 8 µg/mL (≈ 4.7 µM) | 7 µg/mL | 16 µg/mL | 40 µg/mL | Selectivity index (SI) Fungi [11, 17]: 1
3 | CCCCCCCCCCCC(=O)N[C@H]1CSSC[C@@H](C(=O)N[C@@H](CCCNC(=N)N)C(=O)N[C@@H](CC(C)C)C(N)=O)NC(=O)[C@H](CCCNC(=N)N)NC(=O)[C@H](Cc2c[nH]c3ccccc23)NC(=O)[C@H](Cc2c[nH]c3ccccc23)NC(=O)CNC(=O)[C@H](Cc2c[nH]c3ccccc23)NC(=O)[C@H](CCCNC(=N)N)NC(=O)[C@H](CCCNC(=N)N)NC(=O)CNC1=O [Peptide C12-cTurg-6, C12- (CGRRWGWWRC)RL-NH2] (Lauroyl-CGRRWGWWRCRL-NH2; disulfide 1-10) | 8 µg/mL | 8 µg/mL | 16 µg/mL | 8 µg/mL | 32 µg/mL | 32 µg/mL | 14 µg/mL | 14 µg/mL | 64 µg/mL | 128 µg/mL | 64 µg/mL | – | 1 | – | 9 µg/mL | 16 µg/mL (≈ 8.82 µM) | 16 µg/mL (≈ 8.82 µM) | 10 µg/mL | 32 µg/mL | 81 µg/mL | Selectivity index (SI) Tot. bact. ([11]; Table S3, EC50/GM of all bacterial strains, highest tested concentration used where EC50 above it): 1
4 | CC(C)C[C@H](NC(=O)[C@H](CCCCN)NC(=O)[C@@H]1CSSC[C@H](N)C(=O)NCC(=O)N[C@@H](CCCCN)C(=O)N[C@@H](CCCCN)C(=O)N[C@@H](Cc2c[nH]c3ccccc23)C(=O)N[C@@H](Cc2c[nH]c3ccccc23)C(=O)NCC(=O)N[C@@H](Cc2c[nH]c3ccccc23)C(=O)N[C@@H](CCCCN)C(=O)N1)C(N)=O [cTurg-2] (H-CGKKWWGWKCKL-NH2; disulfide 1-10; N-terminus assumed) | 8 µg/mL | 4 µg/mL | 32 µg/mL | 16 µg/mL | 64 µg/mL | 64 µg/mL | 20 µg/mL | 20 µg/mL | 32 µg/mL | 32 µg/mL | 32 µg/mL | > 16 | > 92 | >52 | >1045 µg/mL | 16 µg/mL (≈ 10.5 µM) | 8 µg/mL (≈ 5.26 µM) | 11 µg/mL | 64 µg/mL | 32 µg/mL | Selectivity index (SI) Fungi [11, 17]: > 33
